# Read-outs that look alike come from different tables or passages of the source.
# Biological target: T1, GPR40 (Homo sapiens, UniProt O14842)
# T1 construct: expressed in transfected cells; host or cells: CHO-K1
# Test: GPR40 agonist activity, FLIPR calcium assay in CHO-K1/GPR40 cells
# Type: cell-based
# Method: Inoculate CHO-K1/GPR40 cells in 384-well plates at a density of 10,000 cells/well. Cells were incubated at 37° C. for 24 hours in a 5% CO2 incubator. After the experiment, discard the cell culture medium, quickly add […] of 1× FLIPR® Calcium 6 dye containing 2.5 mM/Probenecid to each well and incubate at 37° C. for 2 hours protected from light. For the determination, different concentrations of drug ([…]) were added to the wells and the fluorescence values were read. The fluorescence excitation wavelength was 494 nm and emission wavelength was 516 nm. FLIPR instrument data, EC50 was derived from the formula Y=Bottom+(Top−Bottom)/(1+(EC50/X)^HillSlope).
# [1] = GPR40 agonist activity range (EC50), CHO-K1/GPR40 cells, read-out: GPR40 activity
# T1 sequence (O14842 whole entry): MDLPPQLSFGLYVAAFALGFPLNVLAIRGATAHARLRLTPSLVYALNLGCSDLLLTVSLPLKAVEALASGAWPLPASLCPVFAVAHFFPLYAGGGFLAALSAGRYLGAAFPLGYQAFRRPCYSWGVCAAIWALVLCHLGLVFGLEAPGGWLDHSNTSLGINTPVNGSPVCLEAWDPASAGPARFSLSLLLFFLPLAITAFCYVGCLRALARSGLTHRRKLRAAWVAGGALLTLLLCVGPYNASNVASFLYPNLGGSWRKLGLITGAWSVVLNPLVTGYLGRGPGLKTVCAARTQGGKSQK
SMILES,EC50 [1],EC50 (read-out: GPR40 activity (EC50))
O=C(O)C(O)C1COc2cc(OCc3cccc4c3OC(F)(F)O4)ccc21 (centres unmarked) [IIb-32],> 100 nM,
O=C(O)C(F)C1COc2cc(OCc3cccc4c3OC(F)(F)O4)ccc21 (centres unmarked) [IIb-33],10 to 100 nM,
O=C(O)C(F)(F)C1COc2cc(OCc3cccc4c3OC(F)(F)O4)ccc21 (centres unmarked) [IIb-34],> 100 nM,
O=C(O)CC1CCc2cc(OCc3cc(F)cc4c3OCO4)ccc21 (centres unmarked) [IIb-35],10 to 100 nM,
CC(C)(CC(=O)O)c1ccc(OCc2cc(F)cc3c2OCO3)cc1 [IIb-36],> 100 nM,
O=C(O)CC1(c2ccc(OCc3cc(F)cc4c3OCO4)cc2)OCCO1 [IIb-37],> 100 nM,
Cc1cc(OCCCS(C)(=O)=O)cc(C)c1-c1cc(COc2ccc3c(c2)OC[C@H]3CC(=O)O)c2c(c1)OCO2 [IIb-38],10 to 100 nM,
O=C(O)C(F)(F)C1COc2cc(OCc3cc(Cl)cc4c3OCO4)ccc21 (centres unmarked) [IIb-39],> 100 nM,
O=C(O)C[C@@H]1COc2cc(OCc3cc(I)cc4c3OCO4)ccc21 [IIb-40],10 to 100 nM,
CN(C)c1cc(COc2ccc3c(c2)OC[C@H]3CC(=O)O)c2c(c1)OCO2 [IIb-41],> 100 nM,
CN(C)c1ccc2c(c1COc1ccc3c(c1)OC[C@H]3CC(=O)O)OCO2 [IIb-42],> 100 nM,
Nc1cc(COc2ccc3c(c2)OC[C@H]3CC(=O)O)c2c(c1)OCO2 [IIb-44],> 100 nM,
COc1cc(COc2ccc3c(c2)OC[C@H]3CC(=O)O)c2c(c1)OCO2 [IIb-45],> 100 nM,
CC(C)(C)OC(=O)Nc1cc(COc2ccc3c(c2)OC[C@H]3CC(=O)O)c2c(c1)OC(F)(F)O2 [IIb-46],< 10 nM,< 10 nM
COC(=O)Nc1cc(COc2ccc3c(c2)OC[C@H]3CC(=O)O)c2c(c1)OCO2 [IIb-47],> 100 nM,
O=C(O)C[C@@H]1COc2cc(OCc3cc(NC(=O)OC4CCCC4)cc4c3OCO4)ccc21 [IIb-48],10 to 100 nM,

SMILES,EC50 [1],EC50 (read-out: GPR40 activity (EC50))
CC(C)(C)NC(=O)Nc1cc(COc2ccc3c(c2)OC[C@H]3CC(=O)O)c2c(c1)OCO2 [IIb-49],> 100 nM,
CC(C)(C)C(=O)Nc1cc(COc2ccc3c(c2)OC[C@H]3CC(=O)O)c2c(c1)OCO2 [IIb-50],> 100 nM,
CC(C)S(=O)(=O)Nc1cc(COc2ccc3c(c2)OC[C@H]3CC(=O)O)c2c(c1)OCO2 [IIb-51],> 100 nM,
O=C(O)C[C@@H]1COc2cc(OCc3cc(OC(F)(F)F)cc4c3OCO4)ccc21 [IIb-52],> 100 nM,
O=C(O)C[C@@H]1COc2cc(OCc3cc(C(F)(F)F)cc4c3OCO4)ccc21 [IIb-53],10 to 100 nM,
O=C(O)C[C@@H]1COc2cc(OCc3cc(C(F)(F)F)cc4c3OC(F)(F)O4)ccc21 [IIb-54],10 to 100 nM,
O=C(O)C[C@@H]1COc2cc(OCc3cc(F)cc4c3OC(F)(F)O4)ccc21 [IIb-55],10 to 100 nM,
O=C(O)C[C@@H]1COc2cc(OCc3cc(Cl)cc4c3OC(F)(F)O4)ccc21 [IIb-56],10 to 100 nM,
O=C(O)C(F)C1COc2cc(OCc3cc(F)cc4c3OCO4)ccc21 (centres unmarked) [IIb-57],10 to 100 nM,
O=C(O)C(F)C1COc2cc(OCc3cc(Cl)cc4c3OCO4)ccc21 (centres unmarked) [IIb-58],10 to 100 nM,
CC(C)(C)OC(=O)Nc1cc(COc2ccc3c(c2)OCC3C(F)C(=O)O)c2c(c1)OCO2 (centres unmarked) [IIb-59],10 to 100 nM,
O=C(O)CC1CCc2cc(OCc3cccc4c3OC(F)(F)O4)ccc21 (centres unmarked) [IIb-61],10 to 100 nM,
CC#CC(CC(=O)O)c1ccc(OCc2cccc3c2OC(F)(F)O3)cc1 (centres unmarked) [IIb-62],10 to 100 nM,
CC(C)(C)OC(=O)Nc1cc(COc2ccc3c(c2)CCC3CC(=O)O)c2c(c1)OC(F)(F)O2 (centres unmarked) [IIb-63],10 to 100 nM,
CC#CC(CC(=O)O)c1ccc(OCc2cc(NC(=O)OC(C)(C)C)cc3c2OC(F)(F)O3)cc1 (centres unmarked) [IIb-64],10 to 100 nM,
